From EP2649091B1, “IMMUNE RESTRICTED PEPTIDES WITH INCREASED EFFICACY” (Stichting Het Nederlands Kanker Instituut, priority 2010, dated 2012)
ALG = not defined here; PHG = not defined here

What was measured:
[1] = target: HLA-A0201 (Homo sapiens, UniProt P04439, D140Y/D185E/D98H/E176V/E277Q/G131W/G231S/I119V/I121R/I166T/I218V/L300P/L318F/N151K/N90K/P208A/P217A/Q86G/Q94H/R138H/R169H/T345S); type: binding
[2] = test system: HLA-A2::Mart-1(26-35) reactive T cells stimulated by T2 cells; experiment: T cell activation time course assay, IFNγ production (FACS), Mart-1 epitope; type: cell-based; conditions: for % CD8+ T cells producing IFN-γ 0H / Geometric mean IFN-γ in arbitrary fluorescence units 0H: time point 0H (basal); for % CD8+ T cells producing IFN-γ 2H / Geometric mean IFN-γ in arbitrary fluorescence units 2H: time point 2H; for % CD8+ T cells producing IFN-γ 4H / Geometric mean IFN-γ in arbitrary fluorescence units 4H: time point 4H; for % CD8+ T cells producing IFN-γ 24H / Geometric mean IFN-γ in arbitrary fluorescence units 24H: time point 24H; for % CD8+ T cells producing IFN-γ 24H / Geometric mean IFN-γ in arbitrary fluorescence units 24H / % CD8+ T cells producing IFN-γ 48H / Geometric mean IFN-γ in arbitrary fluorescence units 48H: free peptide washed away; for % CD8+ T cells producing IFN-γ 48H / Geometric mean IFN-γ in arbitrary fluorescence units 48H: time point 48H

E[2-AOC]AGIGI[4FPHE]T[OM-HS]
% inhibition at T=4H and T=24H FP 4h [1]: 78% | % inhibition at T=4H and T=24H FP 24h [1]: 66% | IC50 Ratio [1]: 1.9

[3-PYRA]MYSDFHFI
% inhibition at T=4H and T=24H FP 4H [1]: 79% | % inhibition at T=4H and T=24H FP 24H [1]: 76%

[CSCF3][2-AOC]YDFFVWL
% inhibition at T=4H and T=24H FP 4H [1]: 91% | % inhibition at T=4H and T=24H FP 24H [1]: 79%

[CSME]AAGIGI[4-FPHE]TV
% inhibition at T=4H and T=24H FP 4h [1]: 63% | % inhibition at T=4H and T=24H FP 24h [1]: 58%

[CSME][2-AOC]AGIGILTV
% CD8+ T cells producing IFN-γ 0H ([2]; peptide 0.5 pM): 0% | Geometric mean IFN-γ in arbitrary fluorescence units 0H ([2]; peptide 0.5 pM): 101 arbitrary fluorescence units | % CD8+ T cells producing IFN-γ 2H ([2]; peptide 0.5 pM): 27% | Geometric mean IFN-γ in arbitrary fluorescence units 2H ([2]; peptide 0.5 pM): 219 arbitrary fluorescence units | % CD8+ T cells producing IFN-γ 4H ([2]; peptide 0.5 pM): 29% | Geometric mean IFN-γ in arbitrary fluorescence units 4H ([2]; peptide 0.5 pM): 368 arbitrary fluorescence units | % CD8+ T cells producing IFN-γ 24H ([2]; peptide 0.5 pM): 18% | Geometric mean IFN-γ in arbitrary fluorescence units 24H ([2]; peptide 0.5 pM): 167 arbitrary fluorescence units | % CD8+ T cells producing IFN-γ 48H ([2]; peptide 0.5 pM): 7% | Geometric mean IFN-γ in arbitrary fluorescence units 48H ([2]; peptide 0.5 pM): 119 arbitrary fluorescence units | % CD8+ T cells producing IFN-γ 0H ([2]; peptide 50 pM): 0% | Geometric mean IFN-γ in arbitrary fluorescence units 0H ([2]; peptide 50 pM): 111 arbitrary fluorescence units | % CD8+ T cells producing IFN-γ 2H ([2]; peptide 50 pM): 28% | Geometric mean IFN-γ in arbitrary fluorescence units 2H ([2]; peptide 50 pM): 249 arbitrary fluorescence units | % CD8+ T cells producing IFN-γ 4H ([2]; peptide 50 pM): 31% | Geometric mean IFN-γ in arbitrary fluorescence units 4H ([2]; peptide 50 pM): 563 arbitrary fluorescence units | % CD8+ T cells producing IFN-γ 24H ([2]; peptide 50 pM): 27% | Geometric mean IFN-γ in arbitrary fluorescence units 24H ([2]; peptide 50 pM): 397 arbitrary fluorescence units | % CD8+ T cells producing IFN-γ 48H ([2]; peptide 50 pM): 20% | Geometric mean IFN-γ in arbitrary fluorescence units 48H ([2]; peptide 50 pM): 288 arbitrary fluorescence units

[CSME][2-AOC]AGIGILT[PRG]
% inhibition at T=4H and T=24H FP 4h [1]: 72% | % inhibition at T=4H and T=24H FP 24h [1]: 70% | IC50 Ratio [1]: 14.8

[CSME][2-AOC]KDVEERV
% inhibition at T=4H and T=24H FP 4h [1]: 60% | % inhibition at T=4H and T=24H FP 24h [1]: 56%

[CSME][NVA]AGIGILT[PRG]
% inhibition at T=4H and T=24H FP 4h [1]: 63% | % inhibition at T=4H and T=24H FP 24h [1]: 60% | IC50 Ratio [1]: 2.8

[PHG]AAGIGI[4-FPHE]T[NLE]
% inhibition at T=4H and T=24H FP 4h [1]: 63% | % inhibition at T=4H and T=24H FP 24h [1]: 66% | IC50 Ratio [1]: 6.8

[PHG][NVA]AGIGILT[ALG] ({PHG-NVA}-AGIGILT-{ALG}; reading uncertain; also: printed as [PHG][NVA]AGIGILT[ALG])
% inhibition at T=4H and T=24H FP 4h [1]: 65% | % inhibition at T=4H and T=24H FP 24h [1]: 64% | IC50 Ratio [1]: 18.9

[am-phg]AAGIGI[4-FPHE]TV
% inhibition at T=4H and T=24H FP 4h [1]: 62% | % inhibition at T=4H and T=24H FP 24h [1]: 59% | IC50 Ratio [1]: 2.1

[am-phg]LAGIGILT[PRG]
% CD8+ T cells producing IFN-γ 0H ([2]; peptide 0.5 pM): 0% | Geometric mean IFN-γ in arbitrary fluorescence units 0H ([2]; peptide 0.5 pM): 94 arbitrary fluorescence units | % CD8+ T cells producing IFN-γ 2H ([2]; peptide 0.5 pM): 27% | Geometric mean IFN-γ in arbitrary fluorescence units 2H ([2]; peptide 0.5 pM): 214 arbitrary fluorescence units | % CD8+ T cells producing IFN-γ 4H ([2]; peptide 0.5 pM): 29% | Geometric mean IFN-γ in arbitrary fluorescence units 4H ([2]; peptide 0.5 pM): 345 arbitrary fluorescence units | % CD8+ T cells producing IFN-γ 24H ([2]; peptide 0.5 pM): 15% | Geometric mean IFN-γ in arbitrary fluorescence units 24H ([2]; peptide 0.5 pM): 159 arbitrary fluorescence units | % CD8+ T cells producing IFN-γ 48H ([2]; peptide 0.5 pM): 3% | Geometric mean IFN-γ in arbitrary fluorescence units 48H ([2]; peptide 0.5 pM): 103 arbitrary fluorescence units | % CD8+ T cells producing IFN-γ 0H ([2]; peptide 50 pM): 0% | Geometric mean IFN-γ in arbitrary fluorescence units 0H ([2]; peptide 50 pM): 105 arbitrary fluorescence units | % CD8+ T cells producing IFN-γ 2H ([2]; peptide 50 pM): 22% | Geometric mean IFN-γ in arbitrary fluorescence units 2H ([2]; peptide 50 pM): 249 arbitrary fluorescence units | % CD8+ T cells producing IFN-γ 4H ([2]; peptide 50 pM): 31% | Geometric mean IFN-γ in arbitrary fluorescence units 4H ([2]; peptide 50 pM): 480 arbitrary fluorescence units | % CD8+ T cells producing IFN-γ 24H ([2]; peptide 50 pM): 28% | Geometric mean IFN-γ in arbitrary fluorescence units 24H ([2]; peptide 50 pM): 342 arbitrary fluorescence units | % CD8+ T cells producing IFN-γ 48H ([2]; peptide 50 pM): 18% | Geometric mean IFN-γ in arbitrary fluorescence units 48H ([2]; peptide 50 pM): 215 arbitrary fluorescence units
